Reference: patent US5672715A, “Herbicidal substituted 3-aryl-pyrazoles” (Monsanto Company, priority 1995, dated 1997)

What was measured:
Type in all cases: in vivo
[1] = tested on: Barnyardgrass; assay: pre-emergence herbicide test; conditions: Echinochloa crus-galli, pre-emergence, 0.25 lb/A; read-out: % plant inhibition
Summary of the method: (§1)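 Seeds were sown on compacted topsoil in pans and covered with a topsoil layer carrying a known amount of active ingredient in acetone or water, applied before or after covering. Pans were bottom-watered on a greenhouse bench, and % inhibition was scored about 14 days after seeding and treatment.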

[2] = tested on: Morning Glory; assay: pre-emergence herbicide test; conditions: Ipomoea, pre-emergence, 0.25 lb/A; read-out: % plant inhibition
Summary of the method: as §1

[3] = tested on: Wild Oats; assay: pre-emergence herbicide test; conditions: 0.25 lb/A
Summary of the method: as §1

[4] = tested on: Rape; assay: pre-emergence herbicide test; conditions: pre-emergence, 0.25 lb/A; read-out: % plant inhibition
Summary of the method: as §1

[5] = tested on: Wheat; assay: pre-emergence herbicide test; conditions: Triticum aestivum, pre-emergence, 0.25 lb/A; read-out: % plant inhibition
Summary of the method: as §1

[6] = tested on: Giant Foxtail; assay: pre-emergence herbicide test; conditions: Setaria faberi, pre-emergence, 0.25 lb/A; read-out: % plant inhibition
Summary of the method: as §1

[7] = tested on: Cocklebur; assay: pre-emergence herbicide test; conditions: 0.25 lb/A
Summary of the method: as §1

[8] = tested on: Corn; assay: pre-emergence herbicide test; conditions: 0.25 lb/A
Summary of the method: as §1

[9] = tested on: Velvetleaf; assay: pre-emergence herbicide test; conditions: Abutilon theophrasti, pre-emergence, 0.25 lb/A; read-out: % plant inhibition
Summary of the method: as §1

[10] = tested on: Downy Brome; assay: pre-emergence herbicide test; conditions: Bromus tectorum, pre-emergence, 0.25 lb/A; read-out: % plant inhibition
Summary of the method: as §1

[11] = tested on: Bedstraw Catchweed; assay: pre-emergence herbicide test; conditions: 0.25 lb/A
Summary of the method: as §1

[12] = tested on: Common Chickweed; assay: pre-emergence herbicide test; conditions: pre-emergence, 0.25 lb/A; read-out: % plant inhibition
Summary of the method: as §1

[13] = tested on: Soybean; assay: pre-emergence herbicide test; conditions: 0.25 lb/A
Summary of the method: as §1

[14] = tested on: Seedling Johnsongrass; assay: pre-emergence herbicide test; conditions: Sorghum halepense, pre-emergence, 0.25 lb/A; read-out: % plant inhibition
Summary of the method: as §1

[15] = tested on: Green Foxtail; assay: pre-emergence herbicide test; conditions: Setaria viridis, pre-emergence; 0.25 lb/A; read-out: % plant inhibition
Summary of the method: as §1

[16] = tested on: Blackgrass; assay: pre-emergence herbicide test; conditions: 0.25 lb/A
Summary of the method: as §1

[17] = tested on: Birdseye Speedwell; assay: pre-emergence herbicide test; conditions: pre-emergence, 0.25 lb/A; read-out: % plant inhibition
Summary of the method: as §1

[18] = tested on: Barnyardgrass; assay: post-emergence herbicide test; conditions: Echinochloa crus-galli, post-emergence, 0.25 lb/A; read-out: % plant inhibition
Summary of the method: (§2)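 Plants were raised from seed in topsoil pans in the greenhouse and treated post-emergence at two to three weeks of age. Candidate chemical was applied in spray solution or suspension containing about 0.4% emulsifier at 1870 L/Ha. Activity recorded as percent inhibition.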

[19] = tested on: Morning Glory; assay: post-emergence herbicide test; conditions: 0.25 lb/A
Summary of the method: as §2

[20] = tested on: Wild Oats; assay: post-emergence herbicide test; conditions: 0.25 lb/A
Summary of the method: as §2

[21] = tested on: Rape; assay: post-emergence herbicide test; conditions: post-emergence, 0.25 lb/A; read-out: % plant inhibition
Summary of the method: as §2

[22] = tested on: Wheat; assay: post-emergence herbicide test; conditions: Triticum aestivum, post-emergence, 0.25 lb/A; read-out: % plant inhibition
Summary of the method: as §2

[23] = tested on: Giant Foxtail; assay: post-emergence herbicide test; conditions: 0.25 lb/A
Summary of the method: as §2

[24] = tested on: Cocklebur; assay: post-emergence herbicide test; conditions: Xanthium strumarium, post-emergence, 0.25 lb/A; read-out: % plant inhibition
Summary of the method: as §2

[25] = tested on: Corn; assay: post-emergence herbicide test; conditions: 0.25 lb/A
Summary of the method: as §2

[26] = tested on: Velvetleaf; assay: post-emergence herbicide test; conditions: Abutilon theophrasti, post-emergence, 0.25 lb/A; read-out: % plant inhibition
Summary of the method: as §2

[27] = tested on: Downy Brome; assay: post-emergence herbicide test; conditions: 0.25 lb/A
Summary of the method: as §2

[28] = tested on: Bedstraw Catchweed; assay: post-emergence herbicide test; conditions: 0.25 lb/A
Summary of the method: as §2

[29] = tested on: Common Chickweed; assay: post-emergence herbicide test; conditions: post-emergence, 0.25 lb/A; read-out: % plant inhibition
Summary of the method: as §2

[30] = tested on: Soybean; assay: post-emergence herbicide test; conditions: 0.25 lb/A
Summary of the method: as §2

[31] = tested on: Seedling Johnsongrass; assay: post-emergence herbicide test; conditions: Sorghum halepense, post-emergence, 0.25 lb/A; read-out: % plant inhibition
Summary of the method: as §2

[32] = tested on: Green Foxtail; assay: post-emergence herbicide test; conditions: Setaria viridis, post-emergence, 0.25 lb/A; read-out: % plant inhibition
Summary of the method: as §2

[33] = tested on: Blackgrass; assay: post-emergence herbicide test; conditions: 0.25 lb/A
Summary of the method: as §2

[34] = tested on: Birdseye Speedwell; assay: post-emergence herbicide test; conditions: post-emergence, 0.25 lb/A; read-out: % plant inhibition
Summary of the method: as §2

Cc1c(-c2cc(C(=O)OCCC(C)C)c(Cl)cc2F)nn(C)c1C(F)(F)F [Compound 51]
inhibition at 280.212 g/ha [1]: 50% | inhibition at 280.212 g/ha [2]: 15% | % plant inhibition [3]: 15% | inhibition at 280.212 g/ha [4]: 5% | inhibition at 280.212 g/ha [5]: 0% | inhibition at 280.212 g/ha [6]: 90% | % plant inhibition [7]: 0% | % plant inhibition [8]: 8% | inhibition at 280.212 g/ha [9]: 90% | inhibition at 280.212 g/ha [10]: 35% | % plant inhibition [11]: 55% | inhibition at 280.212 g/ha [12]: 70% | % plant inhibition [13]: 3% | inhibition at 280.212 g/ha [14]: 80% | inhibition at 280.212 g/ha [15]: 100% | % plant inhibition [16]: 20% | inhibition at 280.212 g/ha [17]: 90% | inhibition at 280.212 g/ha [18]: 60% | % plant inhibition [19]: 35% | % plant inhibition [20]: 55% | inhibition at 280.212 g/ha [21]: 20% | inhibition at 280.212 g/ha [22]: 12% | % plant inhibition [23]: 85% | inhibition at 280.212 g/ha [24]: 85% | % plant inhibition [25]: 7% | inhibition at 280.212 g/ha [26]: 100% | % plant inhibition [27]: 45% | % plant inhibition [28]: 40% | inhibition at 280.212 g/ha [29]: 75% | % plant inhibition [30]: 65% | inhibition at 280.212 g/ha [31]: 85% | inhibition at 280.212 g/ha [32]: 80% | % plant inhibition [33]: 45% | inhibition at 280.212 g/ha [34]: 98%

Cc1c(-c2cc(C(=O)OCSC#N)c(Cl)cc2F)nn(C)c1C(F)(F)F [Compound 50]
inhibition at 280.212 g/ha [1]: 25% | inhibition at 280.212 g/ha [2]: 0% | inhibition at 280.212 g/ha ([3]; Avena fatua, pre-emergence, read-out: % plant inhibition): 0% | inhibition at 280.212 g/ha [4]: 0% | inhibition at 280.212 g/ha [5]: 0% | inhibition at 280.212 g/ha [6]: 0% | inhibition at 280.212 g/ha ([7]; Xanthium strumarium, pre-emergence, read-out: % plant inhibition): 0% | inhibition at 280.212 g/ha ([8]; Zea mays, pre-emergence, read-out: % plant inhibition): 0% | inhibition at 280.212 g/ha [9]: 40% | inhibition at 280.212 g/ha [10]: 5% | inhibition at 280.212 g/ha ([11]; Galium aparine, pre-emergence, read-out: % plant inhibition): 25% | inhibition at 280.212 g/ha [12]: 35% | inhibition at 280.212 g/ha ([13]; Glycine max, pre-emergence, read-out: % plant inhibition): 0% | inhibition at 280.212 g/ha [14]: 0% | inhibition at 280.212 g/ha [15]: 10% | inhibition at 280.212 g/ha ([16]; Alopecurus myosuroides, pre-emergence, read-out: % plant inhibition): 5% | inhibition at 280.212 g/ha [17]: 35% | inhibition at 280.212 g/ha [18]: 5% | inhibition at 280.212 g/ha ([19]; Ipomoea, post-emergence, read-out: % plant inhibition): 35% | inhibition at 280.212 g/ha ([20]; Avena fatua, post-emergence, read-out: % plant inhibition): 10% | inhibition at 280.212 g/ha [21]: 15% | inhibition at 280.212 g/ha [22]: 10% | inhibition at 280.212 g/ha ([23]; Setaria faberi, post-emergence, read-out: % plant inhibition): 0% | inhibition at 280.212 g/ha [24]: 60% | inhibition at 280.212 g/ha ([25]; Zea mays, post-emergence, read-out: % plant inhibition): 5% | inhibition at 280.212 g/ha [26]: 90% | inhibition at 280.212 g/ha ([27]; Bromus tectorum, post-emergence, read-out: % plant inhibition): 10% | inhibition at 280.212 g/ha ([28]; Galium aparine, post-emergence, read-out: % plant inhibition): 35% | inhibition at 280.212 g/ha [29]: 60% | inhibition at 280.212 g/ha ([30]; Glycine max, post-emergence, read-out: % plant inhibition): 7% | inhibition at 280.212 g/ha [31]: 0% | inhibition at 280.212 g/ha [32]: 25% | inhibition at 280.212 g/ha ([33]; Alopecurus myosuroides, post-emergence, read-out: % plant inhibition): 5% | inhibition at 280.212 g/ha [34]: 75%
